Measurements reported in publication PMC8373216, “Development and Preclinical Evaluation of New Inhaled Lipoglycopeptides for the Treatment of Persistent Pulmonary Methicillin-Resistant Staphylococcus aureus Infections” (Antimicrobial Agents and Chemotherapy, 2021).
Converted amounts (≈) assume the structure as drawn. Like-named read-outs stand apart in the source and are kept apart here.

What was measured:
Streptococcus agalactiae = test: Expanded panel broth microdilution MIC/MBC; assay type: cell-based; conditions: for MIC: Streptococcus agalactiae
Streptococcus pyogenes = test: Expanded panel broth microdilution MIC/MBC; assay type: cell-based; conditions: for MIC: Streptococcus pyogenes
[1] = test system: MRSA ATCC BAA 1556 (USA300) biofilm; test: Static MRSA biofilm killing, plastic microtiter plate, MEM
Enterococcus faecium = test: Expanded panel broth microdilution MIC/MBC; assay type: cell-based; conditions: for MIC: Enterococcus faecium, read-out: MIC
[2] = Single-dose nebulized nose-only inhalation PK in healthy rats; assay type: in vivo, rat; conditions: male, Sprague Dawley, rat, in vivo
Outline: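 Ten or eleven rats per cohort dosed once by nebulized nose-only inhalation, delivered dose estimated from 5 min aerosol filter sampling. Lungs and plasma collected from immediately postdose (~30 min) to 168 h; drug quantified by LC-MS/MS after protein precipitation. PK by noncompartmental analysis, linear up/log down.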

Enterococcus faecalis = test: Expanded panel broth microdilution MIC/MBC; assay type: cell-based
Cutibacterium acnes = test: Expanded panel broth microdilution MIC; assay type: cell-based
[3] = test system: Peptostreptococcus anaerobius; test: Expanded panel broth microdilution MIC; assay type: cell-based
[4] = test system: Staphylococcus haemolyticus; test: Expanded panel broth microdilution MIC; assay type: cell-based
[5] = test system: MRSA ATCC BAA 1556 (USA300) biofilm; test: MRSA biofilm killing, MBEC assay system, TSB with 1% human plasma; conditions: MBEC
[6] = test system: Staphylococcus lugdunensis; test: Expanded panel broth microdilution MIC; assay type: cell-based
Eggerthella lenta = test: Expanded panel broth microdilution MIC; assay type: cell-based

## CCCCCCCCCCNC(=O)CNC1(C)CC(OC2C(Oc3c4cc5cc3Oc3ccc(cc3Cl)C(O)C3NC(=O)C(NC(=O)C5NC(=O)C(CC(N)=O)NC(=O)C(NC(=O)C(CC(C)C)NC)C(O)c5ccc(c(Cl)c5)O4)c4ccc(O)c(c4)-c4c(O)cc(O)cc4C(C(=O)O)NC3=O)OC(CO)C(O)C2O)OC(C)C1O (stereo not shown) [RV94]
Streptococcus agalactiae; S. agalactiae, MBC on one organism
  MIC:MBC: 4
Streptococcus agalactiae; ATCC13813, S. agalactiae ATCC 13813, read-out: MIC
  MIC: 0.03 µg/mL (≈ 18.2 nM)
Streptococcus agalactiae; S. agalactiae MMX 4088, read-out: MIC
  MIC: 0.008 µg/mL (≈ 4.86 nM)
Streptococcus agalactiae; S. agalactiae MMX 4115, ermR, read-out: MIC
  MIC: 0.004 µg/mL (≈ 2.43 nM)
Streptococcus agalactiae; S. agalactiae ermR, 1 isolate, read-out: MIC
  MIC: 0.004 µg/mL (≈ 2.43 nM)
Streptococcus agalactiae; S. agalactiae, 2 isolates, read-out: MIC (median)
  MIC: 0.02 µg/mL (≈ 12.1 nM)
Streptococcus pyogenes; S. pyogenes ermR
  MIC:MBC: 1
Streptococcus pyogenes; ATCC19615, S. pyogenes ATCC 19615, read-out: MIC
  MIC: 0.015 µg/mL (≈ 9.11 nM)
Streptococcus pyogenes; S. pyogenes MMX 946, ermR, read-out: MIC
  MIC: 0.008 µg/mL (≈ 4.86 nM)
Streptococcus pyogenes; S. pyogenes MMX 8778, read-out: MIC
  MIC: 0.008 µg/mL (≈ 4.86 nM)
Streptococcus pyogenes; S. pyogenes ermR, 1 isolate, read-out: MIC
  MIC: 0.008 µg/mL (≈ 4.86 nM)
Streptococcus pyogenes; S. pyogenes, 2 isolates, read-out: MIC (median)
  MIC: 0.012 µg/mL (≈ 7.29 nM)
[1]; 2.5 μg/ml
  Reduction in MRSA biofilm titer versus control: 1 log10 CFU/ml
[1]; doses 1 to 10 μg/ml
  Reduction in MRSA biofilm titer versus control: approximately 2 log10 CFU/ml
[1]; two-way ANOVA, Bonferroni
  Concentrations with statistically significant reduction versus control biofilm: no statistical significance
Enterococcus faecium; E. faecium VanA VRE
  MIC:MBC: >8
Enterococcus faecium; E. faecium VanB VRE
  MIC:MBC: >8
Enterococcus faecium; E. faecium MMX 4204, VSE
  MIC: 0.015 µg/mL (≈ 9.11 nM)
Enterococcus faecium; E. faecium VSE, 1 isolate
  MIC: 0.015 µg/mL (≈ 9.11 nM)
Enterococcus faecium; VRE, E. faecium MMX 173, VanB VRE
  MIC: 0.03 µg/mL (≈ 18.2 nM)
Enterococcus faecium; VRE, E. faecium MMX 851, VanA VRE
  MIC: 2 µg/mL (≈ 1210 nM)
Enterococcus faecium; VRE, E. faecium VanA VRE, 1 isolate
  MIC: 2 µg/mL (≈ 1210 nM)
Enterococcus faecium; VRE, E. faecium VanB VRE, 1 isolate
  MIC: 0.03 µg/mL (≈ 18.2 nM)
[2]
  Pulmonary dose: 1.10 mg/kg
[2]; 120 h
  Drug lung level at 120 h: 45%
  Primary hydrolysis byproduct lung level at 120 h: 0.1%
[2]; inhaled or intranasal
  Kp: 1870
  Lung AUC0-∞: 40671 µg·h/g
  Lung Cmax: 262 µg/g
  Lung t1/2: 108 h
  Plasma Cmax: 140 ng/mL
[2]; inhaled or intranasal, 120 h
  Hydrolysis product RV101 relative to parent concentration at lung Cmax: 0.1%
Enterococcus faecalis; E. faecalis VSE, MBC on one organism
  MIC:MBC: >8
Enterococcus faecalis; E. faecalis VanA VRE
  MIC:MBC: >8
Enterococcus faecalis; E. faecalis VanA VRE, 1 isolate
  MIC: 0.03 µg/mL (≈ 18.2 nM)
Enterococcus faecalis; Enterococcus faecalis, ATCC29212, E. faecalis ATCC 29212, VSE, read-out: MIC
  MIC: 0.03 µg/mL (≈ 18.2 nM)
Enterococcus faecalis; Enterococcus faecalis, E. faecalis MMX 1086, VanA VRE, read-out: MIC
  MIC: 0.03 µg/mL (≈ 18.2 nM)
Enterococcus faecalis; Enterococcus faecalis, E. faecalis MMX 4176, VSE, read-out: MIC
  MIC: 0.03 µg/mL (≈ 18.2 nM)
Enterococcus faecalis; Enterococcus faecalis, E. faecalis VSE, 2 isolates, read-out: MIC (median)
  MIC: 0.03 µg/mL (≈ 18.2 nM)
Cutibacterium acnes; ATCC6919, P. acnes ATCC 6919, read-out: MIC
  MIC: 0.008 µg/mL (≈ 4.86 nM)
Cutibacterium acnes; ATCC11827, P. acnes ATCC 11827, read-out: MIC
  MIC: 0.008 µg/mL (≈ 4.86 nM)
Cutibacterium acnes; C. acnes, 2 isolates, read-out: MIC (median)
  MIC: 0.008 µg/mL (≈ 4.86 nM)
[3]; ATCC27337, P. anaerobius ATCC 27337, read-out: MIC
  MIC: 0.008 µg/mL (≈ 4.86 nM)
[3]; P. anaerobius, 1 isolate, read-out: MIC
  MIC: 0.008 µg/mL (≈ 4.86 nM)
[4]; ATCC29970, S. haemolyticus ATCC 29970, read-out: MIC
  MIC: 0.06 µg/mL (≈ 36.4 nM)
[4]; S. haemolyticus, 1 isolate, read-out: MIC
  MIC: 0.06 µg/mL (≈ 36.4 nM)
[5]; 16 μg/ml
  Biofilm activity, fold more potent than vancomycin at the same dose: 2 fold
[5]; two-way ANOVA, Bonferroni
  Concentrations with statistically significant reduction versus control biofilm: ≥ 2 µg/mL
[6]; S. lugdunensis, 1 isolate
  MIC: 0.015 µg/mL (≈ 9.11 nM)
[6]; Staphylococcus lugdunensis, S. lugdunensis MMX 8724, read-out: MIC
  MIC: 0.015 µg/mL (≈ 9.11 nM)
Eggerthella lenta; ATCC43055, E. lenta ATCC 43055, read-out: MIC
  MIC: 0.008 µg/mL (≈ 4.86 nM)
Eggerthella lenta; E. lenta, 1 isolate, read-out: MIC
  MIC: 0.008 µg/mL (≈ 4.86 nM)
